In patent publication US8466122B2, “Trialkyl cationic lipids and methods of use thereof” (Protiva Biotherapeutics, Inc., priority 2010, dated 2013):

System: ApoB mRNA level in the liver
Test: Liver ApoB mRNA knockdown by 1:57 SNALP with ApoB siRNA in mice (QuantiGene assay, normalized to GAPDH mRNA)
Assay type: in vivo, female BALB/c mice
Conditions: IV bolus 0.05 mg/kg siRNA, mouse liver 48 h after dosing, compared to SNALP containing the C2K benchmark cationic lipid
Procedure: In particular, the objective of this study was to assess the ApoB dose response gene silencing activity in the mouse liver of 1:57 SNALP containing various novel trialkyl cationic lipids of Formula I. The ApoB siRNA sequence used in this study is provided in Table 1.
Just prior to the first treatment, animals were weighed and dose amounts were calculated based on the weight of individual animals (equivalent to 10 mL/kg, rounded to the nearest 10 μL). The test article was administered by IV injection through the tail vein once on Day 0 (1 dose total per animal).
Animals were sacrificed on Day 2, 48 h after test article administration. […] A brief necropsy was performed and observations recorded. […]
Body weight was reported for individual animals in addition to group mean and standard deviation of the group mean. Data were expressed in terms of the measured unit (grams) and the group mean difference from PBS vehicle control treatment was calculated for this expression (include SD). For body weights, individual animal data were also expressed as % of pre-treatment value and the group means were expressed as % change from pre-treatment value (include SD). […] Drug activity was measured using a QuantiGene assay for ApoB mRNA level in the liver (normalized to GAPDH mRNA level). […] Data were expressed in terms of the measured unit as well as difference from PBS vehicle control treatment. […]

Compound: CCCCC/C=C\C/C=C\CCCCCCCCC(OC(=O)CCCCN(C)C)C(O)(CCCCCCCC/C=C\C/C=C\CCCCC)CCCCCCCC/C=C\C/C=C\CCCCC (stereo not shown) [Compound 13-B4, (6Z,9Z,29Z,32Z)-20-hydroxy-20-((9Z,12Z)-octadeca-9,12-dienyl)octatriaconta-6,9,29,32-tetraen-19-yl 5-(dimethylamino)pentanoate]
- liver ApoB mRNA knockdown activity (ApoB silencing activity): unexpectedly improved ApoB silencing activity
